Laboratory results from patent US11180486B2, “Indolylkojyl methane analogues, process of preparation thereof and use as inhibitor of cancer cells invasion and metastasis” (Council of Scientific & Industrial Research, priority 2017, dated 2021).
Several values for one entry are separate records, joined by “and”; a condition that tells them apart may be missing. Equal entries are not always repeated. Where two headings read alike, the source gives them in different places.

How the values were obtained:
[1] = test system: mouse mammary carcinoma (4T1) cells; type: in vivo
Description: In Vivo Anti-Tumor and Anti-Metastatic Efficacy Studies. To evaluate the antitumor and antimetastatic effect of 5 in vivo, healthy female Balb/c mice (b.w. 18-23 g) were taken. The experimental protocols were approved by the Institutional Animal Ethics Committee, CPCSEA, of Indian Institute of Integrative Medicine, Jammu. The animals were maintained at 22° C. with a 12 h light-dark cycle and free access to feed and water inside the institutional animal house. Proper care was taken to maintain them in a healthy condition and to avoid any risk of possible pathogenic contaminations. For subcutaneous implantation, the mice were randomized into two groups of 5 mice per group and 1.5 million mouse mammary carcinoma (4T1) cells in serum free RPMI media were injected subcutaneously into the mammary fat pad of each mouse. Either 1 week after the tumor cell implantation or when the tumor volume reached ˜150 mm^3, mice were injected intraperitoneally with either normal saline (NS) or parent compound 1 (100 mg/kg, b.w.) or 5 (30 mg/kg, b.w.) in each alternate days for two weeks. Tumor size was recorded on each alternate days post-cell injection and body weights were recorded once per week. Mice were sacrificed on the 15th day of treatment initiation and tumors were incised for its measurement. Metastatic lung nodules were counted using a dissecting microscope. Lungs were then minced into fine pieces, suspended in medium containing collagenase and kept in 37° C. incubator with vigorous shaking for 2 h. The suspension was then filtered with the help of 70 μm cell strainer (BD, USA) to get the single cell suspension. Then, the suspension was serially diluted for 3-4 times in selection medium containing 6-thioguanine, for the selection of 4T1 cells. Each dilution containing the lung cell suspension was then plated into individual petridishes and incubated at 37° C. and 5% CO2 for the growing of 4T1 cell colonies. After 15 days of incubation, cells were washed with PBS, fixed with methanol and stained with 0.2% crystal violet solution for 1 h. Images of the 4T1 colonies were observed, counted and photographed under an inverted microscope at 20× magnification.

MMP-2 = test: Immunoblotting, expression of MMP-2; type: cell-based, human; settings: MDA-MB-231 cells; dose dependent
Description: (§1) Immunoblotting. MDA-MB-231 and MCF7 cells (0.5×10^6) were plated in six well plates for overnight in a humidified CO2 incubator and then exposed to varying concentrations of 5 (50, 100 and 200 nM) for 24 h along with vehicle (dose dependent study) and 200 nM of 5 for various time points like; 0, 6, 12, 24 and 48 h (time dependent study). Cells were then harvested, washed with chilled PBS and lysed with lysis buffer (HEPES 1 mM, KCl 60 mM, NP-40 0.3%, EDTA 1 mM, DTT 1 mM, sodium orthovanadate 1 mM, PMSF 0.1 mM and cocktail protease inhibitor). The cell extractions were centrifuged at 12,000 rpm for 10 min at 4° C. Protein concentration was measured by the standard Bradford method. An equal amount (20 μg) of protein from each sample was subjected to SDS-PAGE, and proteins were transferred to PVDF membranes (PALL), blocked with 5% (w/v) non-fat milk in PBS containing 0.1% Tween-20, probed with relevant antibodies (1:1000 dilution) for 3 h at room temperature or overnight at 4° C., and subsequently washed and probed with species-specific secondary antibodies coupled to horseradish peroxidase. Immunoreactive proteins were detected by Enhanced Chemiluminescence Plus (Thermo) (Rah et al., 2012, PloS one, 7(9), p.e44039.).

GRP78 = test: Immunoblotting, expression of GRP78; type: cell-based, human; settings: for expression of intracellular GRP78 (time dependent study): 200 nM
Description: as §1
Drug Potentiation Assay. Briefly, MDA-MB-231 cells were exposed to 200 nM of compound 5, 200 nM of doxorubicin alone and/or combination of both (1:1 ratio) for 48 h in cell viability (MTT) assay, for 5 days in a colony formation assay and subjected to western blotting for the expression of GRP78 and Par-4. The ability of 5 to enhance cell killing was expressed as potentiation index (PI), which was the ratio of the […]. Thus, PI>1 indicates potentiation and PI<1 indicates protection.

MCF7 cells = test: Cell viability (MTT) assay; type: cell-based; settings: Homo sapiens
Description: (§2) Cell Culture and Reagents. The cell lines used in this study were procured from American Type Culture Collection (ATCC), Manassas, USA. MCF7, T47D and fR2 cells were cultured in RPMI-1640 medium, whereas the MDA-MB-231 cells were grown in Leibovitz's (L-15) medium supplemented with 10% fetal bovine serum (Gibco) and 1% penicillin/streptomycin (Sigma) in a humidified CO2 incubator (New Brunswick Galaxy 170 R) with 5% CO2. Reagents such as phenylmethylsulfonyl fluoride (PMSF), dithiothreitol (DTT), DMSO, crystal violet, and Bradford's reagent were purchased from Sigma-Aldrich. Protease inhibitor cocktail was procured from Roche. The antibodies for human GRP78, Par-4, MMP-2, MMP-9, NF-kB, E-cadherin and TIMP-1 were procured from Santa-Cruz Biotechnology. The β-actin antibody and the secondary antibodies such as anti-rabbit IgG and anti-mouse IgG were procured from Sigma-Aldrich.
(§3) Cell Viability Assay. The cell viability was determined by standard MTT assay method. Briefly, MDA-MB-231, MCF7, T47D and fR2 cells were seeded in 96 well tissue culture plates (Nunc) at a density of 3×10^3 cells per well and treated with varying concentrations of the test compounds in triplicates. DMSO was taken as a vehicle and the final concentration of the DMSO was maintained at 0.2% in the culture medium. Doxorubicin was employed as a positive control. After 44 h of incubation, MTT dye solution was added into the medium and cells were incubated for another 4 h at 37° C. in 5% CO2. The amount of coloured formazan derivatives formed was measured by taking optical density (OD) using a microplate reader (TECAN, Infinite M200 Pro) at 570 nm and the percentage cell viability was calculated. The IC50 values were calculated using GraphPad Prism software (Version 5.0). Table 2. Cytotoxicity (IC50) of all synthesized compounds of invention against panel of human breast cancer cell lines (MDA-MB-231, MCF7, T47D) and normal breast epithelial (fR2) cells.

T47D cells = test: Cell viability (MTT) assay; type: cell-based; settings: Homo sapiens, 44 h + 4 h, mean ± SD of three experiments
Description: as §2, §3

MDA-MB-231 cells = test: Cell viability (MTT) assay; type: cell-based; settings: Homo sapiens
Description: as §2, §3

Par-4 = test: Immunoblotting, expression of Par-4; type: cell-based, human
Description: as §1, with “An equal amount (20 μg) of protein from each sample was subjected to SDS-PAGE, and proteins were transferred to PVDF membranes (PALL), blocked with 5% (w/v) non-fat milk in PBS containing 0.1% Tween-20, probed with relevant antibodies (1:1000 dilution) for 3 h at room temperature or overnight at 4° C., and subsequently washed and probed with species-specific secondary antibodies coupled to horseradish peroxidase.” left out
Drug Potentiation Assay. […] The ability of 5 to enhance cell killing was expressed as potentiation index (PI), which was the ratio of the % inhibition of 5 alone at the given dose and the % inhibition in combination with doxorubicin. […]

[2] = MDA-MB-231, 5 and doxorubicin in combination, 24 h, vs each alone, densitometry

## CCCCCCCC(c1oc(CO)cc(=O)c1O)c1c[nH]c2ccccc12 (stereo not shown) [Compound 5, 2-{1-(1H-indol-3-yl)octyl}-3-hydroxy-6-(hydroxymethyl)-4H-pyran-4-one]
[1]; 30 mg/kg b.w. i.p., alternate days for two weeks
  decrease in metastatic lung nodules: 84.5%
[1]; 30 mg/kg b.w. i.p., alternate days for two weeks, vs normal saline
  inhibition in tumor growth: 79.2% and 67%
[1]; 30 mg/kg b.w., compared to 1 and vehicle treated animals
  colony formation by 4T1 cells in lung suspension: inhibited drastically
MMP-2
  expression of MMP-2: downregulated
GRP78; 24 h time point
  expression of intracellular GRP78 (time dependent study): consistent decrease
GRP78; 48 h time period
  expression of intracellular GRP78 (time dependent study): almost vanished
GRP78; 100 and 200 nM, 24 h, MDA-MB-231 and MCF7 vs vehicle
  expression of GRP78 (dose dependent study): steady downregulation
GRP78; [2]
  decrease in the expression of GRP78: 5.1 fold
MCF7 cells; MCF7, 44 h + 4 h, mean ± SD of three experiments, read-out: IC50 values MCF7
  IC50: 150 ± 95 nM
MCF7 cells; MCF7, read-out: IC50 in MCF7
  IC50: 150 nM
T47D cells
  IC50: 3450 nM
T47D cells; 48 h
  IC50: 3450 nM
MDA-MB-231 cells; MDA-MB-231, 44 h + 4 h, mean ± SD of three experiments, read-out: IC50 values MDA-MB-231
  IC50: 209 ± 265 nM
MDA-MB-231 cells; MDA-MB-231, read-out: IC50 in MDA-MB-231
  IC50: 209 nM
Par-4; [2]
  increase in the expression of Par-4: 5.8 fold
Par-4; MDA-MB-231 cells, dose dependent
  expression of Par-4: induced significantly
